Patent US11597708B2, “Inhibitors of heat shock factors and uses thereof” (HSF Pharmaceuticals SA, priority 2016, dated 2023)

Experiments:
[1] = system: multiple myeloma MM.1S cells; assay: Analysis of mechanism of cell death in MM.1S cells; assay type: cell-based, human; details: in contrast to HeLa cells (non-apoptotic mechanism)
HeLa cells = assay: Annexin V/7 aminoactinomycin D double staining assay; assay type: cell-based, human; details: 25 μM for up to 24 hours
Method: FIG. 6. (A) HeLa cell cultures were mock-exposed (−) or exposed to the indicated concentrations of compound 115 for 24 (left panel) or 96 (right panel) hours. Cell viability of total cultures, floating cells and attached cells was assayed using an Alamar Blue assay. (B) HeLa cell cultures were mock-exposed (−) or exposed to the indicated concentrations of compound 115 for 15-96 hours. Trypan Blue dye exclusion was employed to determine numbers of live cells (left panel) and relative levels of necrotic cells (right panel). (C) HeLa cell cultures were mock-exposed (−) or exposed to the indicated concentrations of compound 115 for 6 and 24 h. Shown are relative levels of early apoptotic cells (annexin-positive, 7 aminoactinomycin D-negative). (D) Flow cytometric analysis of DNA of HeLa cell cultures mock-exposed (−) or exposed to the indicated concentrations of compound 115 for 6, 15 and 24 hours. Relative levels of apoptotic cells are indicated.
Further studies were aimed at finding out whether IHSF-exposed cancer cells were only growth-arrested or were actually killed and, if they were killed, by what mechanism. […] The viability signal (in whole cultures and, more dramatically, when only attached cells were analyzed) decreased as a function of IHSF concentration. […] Stained (necrotic) and unstained (live) cells were counted (FIG. 6B). […]

human cancer cell lines = assay: Viability of human cancer cell lines (overall statements); assay type: cell-based; details: 96-hour exposure; sensitivity varied greatly; no effect of p53 status
Method: Cultures of HeLa cells were exposed for 96 hours to different concentrations of IHSF 001, 058 and 115, and viability was assessed using an Alamar Blue assay. It is noted that this standard assay examines attached cells only. This subject will be discussed in more detail below. […] The relative cytotoxicity of the compounds appears to parallel their respective activities as inhibitors of HSF1 function (inhibition of RLuc expression in Z74 cells). We next examined the viability of different human cancer cell lines subsequent to a 96-hour exposure to compound 115 (Table 3). HSF1 was reported as being required for optimal p21 expression and for p53-mediated cell cycle arrest in response to genotoxins. Logan, I. R. et al. (2009) Nucleic Acids Res. 37: 2962-2971. […] Cell lines of different p53 status were included in the experiments in order to find out whether sensitivity to IHSF 115 was related to p53 status. […] No effect of p53 status could be discovered. It is noted that a number of additional HSF inhibitors of the present disclosure were tested and found to effectively reduce the viability of human cancer cells.

HSF1-ATF1 interaction = molecular target: T1, HSF1-ATF1 interaction (Homo sapiens, UniProt Q00613); assay: Anti-FLAG immunoprecipitation of FLAG-tagged HSF1 and WB (HSF1-ATF1 interaction); assay type: cell-based; details: HeLa-derived line expressing FLAG-tagged HSF1, heat-treated 30 min at 43° C.
T1 construct: expressed in transfected cells; host or cells: HeLa-derived cell line stably expressing HSF1-FLAG
Excerpt: Recruitment of HSF1 to target promoters in response to a stress is mediated by ATF1/CREB. Takii, R. et al. (2015) Mol. Cell. Biol. 35: 11-25. ATF1/CREB regulates the stress-induced HSF1 transcription complex that includes BRG1 chromatin-remodeling complex and p300/CBP. The former complex promotes an active chromatin state in the promoters, whereas p300/CBP accelerates the shutdown of HSF1 DNA-binding activity as well as stabilizes HSF1 against proteasomal degradation during recovery from stress. To assess the effects of the IHSF on the assembly of the transcription complex, use was made of a HeLa-derived cell line that stably expresses a C-terminally FLAG-tagged HSF1. Cultures were heat-treated for 30 min at 43° C. in the presence or absence of IHSF 115, extracts were prepared, and tagged HSF1 was immunoprecipitated using an anti-FLAG antibody.

HSE DNA-binding activity = molecular target: T2, HSE DNA-binding activity (Homo sapiens, UniProt Q00613); assay: EMSA using extracts of heat-treated HeLa cells, in the presence of IHSF; assay type: biochemical; details: extracts of HeLa cells heat-treated at 43° C. for 30 min; concentrations as high as about 0.5 mM
T2 construct: functionally linked to an hsp70b promoter and therefore controlled by endogenous HSF1; endogenous in cells; host or cells: HeLa cells / HeLa-derived cell line Z74
T2 sequence (Q00613 1-529): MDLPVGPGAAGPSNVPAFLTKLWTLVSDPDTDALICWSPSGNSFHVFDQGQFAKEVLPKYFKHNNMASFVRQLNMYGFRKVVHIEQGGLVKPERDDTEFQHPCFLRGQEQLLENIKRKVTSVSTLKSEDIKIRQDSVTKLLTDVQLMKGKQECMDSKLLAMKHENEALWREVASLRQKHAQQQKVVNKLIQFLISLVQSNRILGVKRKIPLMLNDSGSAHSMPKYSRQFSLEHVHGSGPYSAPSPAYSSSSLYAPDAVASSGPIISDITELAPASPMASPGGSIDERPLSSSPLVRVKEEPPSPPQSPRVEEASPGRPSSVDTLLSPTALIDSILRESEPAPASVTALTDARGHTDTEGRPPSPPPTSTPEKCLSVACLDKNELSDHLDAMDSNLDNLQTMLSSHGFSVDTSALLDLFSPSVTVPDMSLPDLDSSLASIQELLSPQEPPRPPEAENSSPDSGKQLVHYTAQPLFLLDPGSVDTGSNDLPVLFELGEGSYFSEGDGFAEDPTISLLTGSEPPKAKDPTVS
Method: Electrophoretic mobility shift assays (EMSA) using a radiolabeled HSE DNA probe were carried out to assess HSF1 DNA-binding activity in extracts of heat-treated (43° C./30 min) HeLa cells that had been exposed to different concentrations of compounds 058 or 115 (FIG. 3A, top panels). […] HSF1 degradation correlated well with the observed decrease in DNA-binding activity. Therefore, HSF1 degradation provides a sufficient explanation for the reduced HSE DNA-binding activity in cells treated with IHSF 058. […] EMSA were also carried out using extracts of HeLa cells that had been heat-treated at 43° C. for 30 min.

| SMILES | mechanism of cell death of MM.1S cells [1] | live cells annexin V-stained (HeLa cells) | viability of human cancer cell lines (human cancer cell lines) | HSF1-ATF1 interaction (co-immunoprecipitation, WB) (HSF1-ATF1 interaction) | HSE DNA-binding activity (EMSA) in the presence of IHSF (HSE DNA-binding activity) |
| --- | --- | --- | --- | --- | --- |
| CN(C(=O)/C=C/C1=NCCCO1)c1ncc(-c2cccnc2)s1 [IHSF 115, (E)-3-(5,6-Dihydro-4H-[1,3]oxazin-2-yl)-N-methyl-N-(5-pyridin-3-yl-thiazol-2-yl)-acrylamide] | prominent apoptotic component | no more than 15% | reduced viability in all cell lines tested | dramatically reduced | – |
| CCOC(=O)/C=C/C(=O)Nc1nccs1 [IHSF 001, (E)-ethyl 4-oxo-4-(thiazol-2-ylamino)but-2-enoate] | – | – | – | – | no reduction |
